Ki data for 1 compound are collected here from BindingDB's records for doi:10.1016/j.ejmech.2022.114789 (Sichuan University, 2022).

What is called Ki is the equilibrium dissociation constant of an inhibitor or competing ligand from its target.

The target in the assay is T1, Catenin beta-1 (Homo sapiens, UniProt P35222).
T1 sequence (P35222 whole entry): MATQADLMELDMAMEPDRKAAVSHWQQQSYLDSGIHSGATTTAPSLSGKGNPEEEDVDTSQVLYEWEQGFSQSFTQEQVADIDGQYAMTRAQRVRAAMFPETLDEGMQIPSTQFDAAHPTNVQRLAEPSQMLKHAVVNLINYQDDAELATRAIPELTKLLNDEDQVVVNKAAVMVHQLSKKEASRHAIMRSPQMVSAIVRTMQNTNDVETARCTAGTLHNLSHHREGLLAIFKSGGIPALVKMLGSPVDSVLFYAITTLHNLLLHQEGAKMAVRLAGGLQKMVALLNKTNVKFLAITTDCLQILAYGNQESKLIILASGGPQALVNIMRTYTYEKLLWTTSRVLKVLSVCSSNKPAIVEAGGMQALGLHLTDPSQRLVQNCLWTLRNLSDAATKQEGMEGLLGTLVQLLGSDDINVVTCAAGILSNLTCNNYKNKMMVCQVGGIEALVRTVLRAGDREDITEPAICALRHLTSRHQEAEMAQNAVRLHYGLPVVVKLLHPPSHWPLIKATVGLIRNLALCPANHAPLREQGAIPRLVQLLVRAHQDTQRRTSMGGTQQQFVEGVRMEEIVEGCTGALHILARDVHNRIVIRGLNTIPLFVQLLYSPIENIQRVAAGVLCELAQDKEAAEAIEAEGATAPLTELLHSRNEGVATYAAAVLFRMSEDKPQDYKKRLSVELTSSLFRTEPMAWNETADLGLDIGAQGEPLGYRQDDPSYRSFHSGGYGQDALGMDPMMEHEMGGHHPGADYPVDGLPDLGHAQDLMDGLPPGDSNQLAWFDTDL
Put plainly: Inhibition of His6-tagged human beta-Catenin (138 to 686 residues)/biotinylated human BCL9 (350 to 375 residues) protein-protein interaction assessed as inhibition constant by AlphaScreen competitive assay. (In general: Bead proximity is the source of the signal in Alpha formats.)

As to `O=C(Nc1ccc(O[C@H]2CCNC2)c(-c2ccc(F)cc2)c1)c1ccc(O[C@H]2CCNC2)c(-c2ccc(F)c(F)c2)c1`, the inhibition constant Ki amounted to 2100 nM.
